{"source": "patent US20030206891A1", "about": "“Rapamycin-based biological regulation” (ARIAD Gene Therapeutics, Inc., priority 1995, published 2003)", "key": {"FKBP": {"target": "T1, FKBP (Homo sapiens, UniProt P62942)", "T1 construct": "made in house", "T1 sequence (P62942 whole entry)": "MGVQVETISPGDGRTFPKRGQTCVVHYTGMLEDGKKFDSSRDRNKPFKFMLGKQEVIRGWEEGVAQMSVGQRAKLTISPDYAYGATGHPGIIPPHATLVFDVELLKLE", "assay": "Competitive fluorescence polarization (FP) assay of binding to FKBP with fluoresceinated FK506 probe AP1491", "experimental": "Serial 10-fold dilutions of each analog were prepared in 100% ethanol in glass vials and stored on ice. All other manipulations were performed at room temperature.\nThe plates was stored covered in the dark for approximately 30 min to permit equilibration and then the fluorescence polarization of the sample in each well read on a Jolley FPM-2 FP plate reader (Jolley Consulting and Research, Inc., Grayslake, Ill.) in accordance with the manufacturer's recommendations. The mean polarization (mP units) for each competitor concentration was usually converted to % total binding by reference to the control values and plotted (y) vs. log molar final concentration of competitor (x). Non-linear least square analysis was used to fit the curve and extract the IC50 using the following equation:\ny=M1+(M4−M1)/(1+exp(M2*(M3−x)))\nwhere M3 is the IC50. For incomplete curves the IC50 was determined by interpolation.\nThe affinity of the rapalogs for FKBP was assayed as described for C24 rapalogs in section A above, using competitive FP."}, "FRAP": {"target": "T2, FRAP (Homo sapiens, UniProt P42345+P62942)", "T2 construct": "expressed in transfected cells; host or cells: HT20-6 (clone of human HT1080 fibrosarcoma cells)", "T2 sequence (P42345 2025-2113)": "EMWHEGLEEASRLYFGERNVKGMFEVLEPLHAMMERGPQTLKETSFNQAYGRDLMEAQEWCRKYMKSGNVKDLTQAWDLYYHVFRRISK", "T2 sequence (P62942 2-108)": "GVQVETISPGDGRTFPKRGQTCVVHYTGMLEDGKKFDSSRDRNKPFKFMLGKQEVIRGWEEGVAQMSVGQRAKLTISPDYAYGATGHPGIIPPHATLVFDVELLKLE", "assay": "SEAP reporter assay in HT20-6 cells for binding of rapalog-FKBP complexes to FRAP", "assay_type": "cell-based", "conditions": "serial dilutions, 22 hours, FIG. 15", "experimental": "HT20-6 cells were plated in 96-well dishes (1×10^4 cells/well) and 200 _l medium containing serial dilutions of rapalog was added to each well (in triplicate)."}, "[1]": {"assay": "Pharmacokinetics in nu/nu mice after intravenous administration", "assay_type": "in vivo", "source_text": "(§1) The accuracy of the dosing solutions was confirmed by HPLC analysis prior to intravenous administration into the tail veins. […] In addition, other control mice, bearing transfected cells, received only the rapamycin vehicle."}, "[2]": {"test_system": "HT1080 cells expressing myristoylated FRAP-FKBP-Fas or (FKBPx2)-Fas chimeras", "assay": "Regulated apoptosis of stably transfected HT1080 cells, alamar blue viability", "assay_type": "cell-based, human", "experimental": "HT1080 cells were infected with viral stock and selected with G418.\nThe media was removed and replaced with 100 μl of media containing 10% alamar blue dye. Plates were incubated as before, and the extent of cell viability assessed periodically by spectrophotometric determination of OD at 570 nm and 600 nm on a microtiter plate reader."}, "transfected HT1080 cells": {"test_system": "transfected HT1080 cells", "assay": "Rapamycin-dependent production of hGH in nu/nu mice transplanted with transfected HT1080 cells", "assay_type": "in vivo", "source_text": "To transplant transiently transfected cells into mice, 2×10^6 transfected HT1080 cells, were suspended in 100 _l PBS/0.1% BSA/0.1% glucose buffer, and administered into four intramuscular sites (approximately 25 _l per site) on the haunches and flanks of the animals. Control mice received equivalent volume injections of buffer alone.\nas §1\nBlood was collected by either anesthetizing or sacrificing mice via CO2 inhalation. Anesthetized mice were used to collect 100 _l of blood by cardiac puncture. The mice were revived and allowed to recover for subsequent blood collections. Sacrificed mice were immediately exsanguinated. Blood samples were allowed to clot for 24 hours, at 4° C., and sera were collected following centrifugation at 1000×g for 15 minutes. Serum hGH was measured by the Boehringer Mannheim non-isotopic sandwich ELISA (Cat No.1 585 878). […] Recommended assay instructions were followed.\nMice were administered transfected HT1080 cells as described above. […] The four remaining doses were given under anesthesia, immediately subsequent to blood collection, at 16, 32, 48, and 64 hours. […]"}, "[3]": {"target": "FRAP (amino acids 2015-2114) displayed on phage with His6-tagged FKBP (Homo sapiens, UniProt P42345+P62942)", "sequence (P42345 2015-2114)": "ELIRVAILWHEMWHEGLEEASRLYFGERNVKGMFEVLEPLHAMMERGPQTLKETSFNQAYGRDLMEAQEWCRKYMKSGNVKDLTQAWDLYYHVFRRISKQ", "sequence (P62942 with tags, fused parts or gaps)": "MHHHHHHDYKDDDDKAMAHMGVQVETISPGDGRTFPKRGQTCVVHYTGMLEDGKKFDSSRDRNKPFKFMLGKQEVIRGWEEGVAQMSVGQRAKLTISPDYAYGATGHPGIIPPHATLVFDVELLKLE", "assay": "Binding enrichment of FRAP display phagemids on His6-flag-FKBP with compound, captured on Ni-NTA agarose", "conditions": "1 μM His6-flag-FKBP, 2.5 μl of 100 pM compound in 250 μl, 1 hour"}, "[4]": {"target": "Lex-FKBP and Lex-FRAP proteins (Homo sapiens, UniProt P42345+P62942)", "sequence (P62942 2-108)": "as the sequence (P62942 2-108) above", "sequence (P42345 2025-2113)": "as the sequence (P42345 2025-2113) above", "assay": "Gel mobility shift assay of rapamycin-dependent DNA binding by Lex-FKBP/Lex-FRAP", "assay_type": "biochemical", "conditions": "increasing amounts of rapamycin, FIG. 14 lanes 2-4"}, "[5]": {"conditions": "rapamycin C24 oximes, competitive FP vs AP1491 probe, recombinant FKBP"}, "[6]": {"conditions": "C7 rapalog experiment, competitive FP"}}, "data": [{"molecule": "COC1CC2CCC(C)C(O)(O2)C(=O)C(=O)N2CCCCC2C(=O)OC(C(C)CC2CCC(O)C(OC)C2)CC(=NOCC(N)=O)C(C)C=C(C)C(O)C(OC)C(=O)C(C)CC(C)C=CC=CC=C1C", "note": "(single isomer, unassigned) [AP1730, Rapamycin (E and Z)-24-(O-carboxamidomethyloxime)]", "values": [{"measurement": "fold loss in affinity (=IC50/IC50 of rapamycin)", "setting": "FKBP; C24 oxime experiment", "result": 40.5}, {"measurement": "IC50", "setting": "FKBP; [5]", "result": 320, "unit": "nM"}]}, {"molecule": "COC1CC2CCC(C)C(O)(O2)C(=O)C(=O)N2CCCCC2C(=O)OC(C(C)CC2CCC(O)C(OC)C2)CC(=NOCC(=O)O)C(C)C=C(C)C(O)C(OC)C(=O)C(C)CC(C)C=CC=CC=C1C", "note": "(stereo not drawn) [AP1686, Rapamycin (E and Z)-24-(O-carboxymethyloxime)]", "values": [{"measurement": "fold loss in affinity (=IC50/IC50 of rapamycin)", "setting": "FKBP; C24 oxime experiment", "result": 1620}, {"measurement": "IC50", "setting": "FKBP; [5]", "result": 16200, "unit": "nM"}]}, {"molecule": "COC1CC2CCC(C)C(O)(O2)C(=O)C(=O)N2CCCCC2C(=O)OC(C(C)CC2CCC(O)C(OC)C2)CC(=NOCC(=O)O)C(C)C=C(C)C(O)C(OC)C(=O)C(C)CC(C)C=CC=CC=C1C", "note": "(stereo not drawn) [AP1687, Rapamycin (E and Z)-24-(O-carboxymethyloxime)]", "values": [{"measurement": "fold loss in affinity (=IC50/IC50 of rapamycin)", "setting": "FKBP; C24 oxime experiment", "result": 813}]}, {"molecule": "COC1CC2CCC(C)C(O)(O2)C(=O)C(=O)N2CCCCC2C(=O)OC(C(C)CC2CCC(O)C(OC)C2)CC(=NOCC(N)=O)C(C)C=C(C)C(O)C(OC)C(=O)C(C)CC(C)C=CC=CC=C1C", "note": "(single isomer, unassigned) [AP1729, Rapamycin (E and Z)-24-(O-carboxamidomethyloxime)]", "values": [{"measurement": "fold loss in affinity (=IC50/IC50 of rapamycin)", "setting": "FKBP; C24 oxime experiment", "result": 304}, {"measurement": "IC50", "setting": "FKBP; [5]", "result": 2400, "unit": "nM"}]}, {"molecule": "C14-desoxo-rapamycin [reference compound]", "values": [{"measurement": "fold loss in affinity (=IC50/IC50 of rapamycin)", "setting": "FKBP; C7 rapalog experiment", "result": 20.8}, {"measurement": "fold loss in affinity (=IC50/IC50 of rapamycin)", "setting": "FKBP; C24 oxime experiment", "result": 18.6}]}, {"molecule": "COC1CC(CC(C)C2CC(=O)C(C)C=C(C)C(O)C(OC)C(=O)C(C)CC(C)C=CC=CC=C(C)C(c3c[nH]c4ccccc34)CC3CCC(C)C(O)(O3)C(=O)C(=O)N3CCCCC3C(=O)O2)CCC1O", "note": "(stereo not drawn) [AP1702, 7S-(3-indolyl)rapamycin]", "values": [{"measurement": "FRAP affinity as indicated by SEAP production", "setting": "FRAP", "result": "almost completely abolish SEAP expression"}, {"measurement": "fold loss in affinity (=IC50/IC50 of rapamycin)", "setting": "FKBP; C7 rapalog experiment", "result": 3.0}, {"measurement": "IC50", "setting": "FKBP; [6]", "result": 24.5, "unit": "nM"}]}, {"molecule": "CO[C@@H]1CC(C[C@@H](C)C2CC(=O)[C@H](C)/C=C(\\C)[C@@H](O)[C@@H](OC)C(=O)[C@H](C)C[C@H](C)/C=C/C=C/C=C(\\C)[C@@H](OC(C)C)C[C@@H]3CC[C@@H](C)[C@@](O)(O3)C(=O)C(=O)N3CCCC[C@H]3C(=O)O2)CC[C@H]1O", "note": "(stereo partly drawn) [AP1700, 7S-isopropoxyrapamycin]", "values": [{"measurement": "FRAP affinity as indicated by SEAP production", "setting": "FRAP", "result": "modest reduction in FRAP affinity"}, {"measurement": "fold loss in affinity (=IC50/IC50 of rapamycin)", "setting": "FKBP; C7 rapalog experiment", "result": 2.5}, {"measurement": "IC50", "setting": "FKBP; [6]", "result": 17.8, "unit": "nM"}]}, {"molecule": "hGH: human growth hormone secreted by the engineered cells (reporter gene product)", "values": [{"measurement": "half-life of clearance from the circulation", "setting": "[1]", "result": "less than four minutes"}]}, {"molecule": "CCC(C)(C)C(=O)C(=O)N1CCCCC1C(=O)O[C@H](CCc1ccc(OC)c(OC)c1)c1cccc(OCC(=O)NCCOCCNC(=O)COc2cccc([C@@H](CCc3ccc(OC)c(OC)c3)OC(=O)C3CCCCN3C(=O)C(=O)C(C)(C)CC)c2)c1", "note": "(stereo partly drawn) [AP1428]", "values": [{"measurement": "extent of cell death of cells expressing a myristoylated (FKBPx2)-Fas construct, relative to rapamycin on M30/M31 cells", "setting": "[2]; FIG. 13(c)", "result": "comparable"}]}, {"molecule": "CO[C@H]1C[C@@H]2CC[C@@H](C)[C@@](O)(O2)C(=O)C(=O)N2CCCC[C@H]2C(=O)O[C@H]([C@H](C)C[C@@H]2CC[C@@H](O)[C@H](OC)C2)CC(=O)[C@H](C)/C=C(\\C)[C@@H](O)[C@@H](OC)C(=O)[C@H](C)C[C@H](C)/C=C/C=C/C=C/1C", "note": "[rapamycin, Rapamycin]", "values": [{"measurement": "serum hGH production vs dose", "setting": "transfected HT1080 cells; 0.01-10.0 mg/kg i.v., 17 hours after administration, FIG. 6", "result": "dose-responsive production of hGH"}, {"measurement": "time of peak serum hGH after treatment", "setting": "transfected HT1080 cells; single 10.0 mg/kg i.v. dose, FIG. 7", "result": "peaked at eight hours"}, {"measurement": "enrichment of FRAP phage compared to the starting mixture", "setting": "[3]", "result": 271, "unit": "fold"}, {"measurement": "effect on survival of cells not expressing mixed chimeric proteins", "setting": "[2]; FIG. 13(c)", "result": "minimal effects"}, {"measurement": "survival of cells stably transfected with M30 and M31-expressing constructs", "setting": "[2]; with 50 ng/ml actinomycin D, about 20 hours, FIG. 13(a),(b)", "result": "potently reduced"}, {"measurement": "formation of specific protein-DNA complex", "setting": "[4]", "result": "concomitant appearance of a specific complex"}]}, {"molecule": "C=CC[C@@H]1/C=C(\\C)C[C@H](C)C[C@H](OC)[C@H]2O[C@@](O)(C(=O)C(=O)N3CCCC[C@H]3C(=O)O[C@H](/C(C)=C/[C@@H]3CC[C@@H](O)[C@H](OC)C3)[C@H](C)[C@@H](O)CC1=O)[C@H](C)C[C@@H]2OC", "note": "[FK506]", "values": [{"measurement": "enrichment of FRAP phage compared to the starting mixture", "setting": "[3]", "result": 2.4, "unit": "fold"}]}]}
